Columns and labels:
[1] = test system: TGF-β secreted by HOF cells; experiment: TGF-β ELISA in Human Oral Fibroblast cells; assay type: cell-based; details: HOF treated with conditioned media from Oral Keratinocytes
Experimental: Cell Culture. Normal human oral keratinocytes (NOKSI) and fibroblast (HOF) cells were maintained in Dulbecco […] Eagle's medium (Sigma-Aldrich, St. Louis, MO, USA) supplemented with 10% fetal bovine serum (Atlas Bio-logicals, Fort Collins, CO, USA) and 100 units/mL penicillin and 100 μg/mL streptomycin (LifeTechnologies, Carlsbad, CA, USA). Cells were grown in incubator at 37° C. in a humidified chamber with 5% CO2.
Enzyme linked immunosorbent assay (ELISA). ELISA was conducted with a mouse TNF-α ELISA Kit (PeproTech, USA) and TGF-β Emax ImmunoAssay System (Promega USA) to detect the TNF-α and TGF-β respectively. After normalization of the total cells or tissue protein lysates, 20 μg protein of each sample was used for the detection of TNF-α or TGF-β. ELISA was performed according to the manufacturers' instructions. For TNF-α, 100 ng/100 μl of capture antibody was added to each well of 96 well assay plate and incubated for overnight at room temperature. Blocking buffer of 200 μl per well were added to each well and incubated for 1 hour at room temperature. […] Optical absorbing values were read at 405 and 450 nm and corrected by 650 nm. […] TMB One Solution was added for 15 minutes and the reaction were stopped using 100 μl of 1N hydrochloric acid and the absorbance at 450 nm were recorded on a plate reader. Data were analyzed using excel software. […]

[2] = test system: Myd88; experiment: Mice study #1: Myd88 immunohistochemistry of gingival tissue; assay type: in vivo; details: BALB/c
Experimental: Mice study #1: Pilot study to establish DIGO disease model. Sterile sutures (5-0 Silk thread, Ethicon, Johnson & Johnson, Somerville, NJ) were placed around the lower central incisors on both sides in BALB/c (Male) mice anaesthetized conditions using Ketamine (90-100 mg/kg bodyweight) and Xylazine (5-10 mg/kg body weight) using a 0.1 cc syringe with a 25-gauge needle intraperitoneally (FIG. 37). Mice were checked daily for intact suture placement and replaced when necessary. […] The controls were injected with the vehicle used to dissolve the drug, which was 10% ethanol and 10% polyethylene glycol castor oil (both Sigma-Aldrich, St. Louis MO) in distilled water. For preventive treatments, Folic acid was supplemented in the drinking water (10 μg/ml) ad libitum and methylcellulose gel with the Folic acid (100 μg/ml) microspheres was applied daily on the anterior gingiva. The three groups in this study were: • 1. Control group (n=1): no interventions were performed • 2. […] Treatments were continued for 28 days and digital images were captured over the time course.
Histopathology and Immunohistochemistry. […]
Immunohistochemical analysis. […] Then, we examined the histopathological images of the mice model type BALB/c and we assessed the expressions of the Myd88 in the disease group in comparison to the negative control and Folic acid treated group. […]

[3] = test system: drug-induced gingival overgrowth (DIGO); experiment: Mice study #1: pilot DIGO model (suture + cyclosporine), gingival overgrowth; assay type: in vivo, BALB/c mice
Source text: Animal Study. […] Therefore, we developed a novel in-vivo anterior ligature model to develop DIGO. We examined two strains of mice, BALB/c and C57BL/6 were used. Sterile ligature (5-0 Silk thread) were placed around the lower central incisors on both sides in mice for 14 days at anaesthetized conditions using ketamine and xylazine. Mice were daily checked for placement of suture. […] The vehicle used to dissolve the drug was 10% ethanol and 10% polyethyleneglycol castor oil (Sigma-Aldrich, St. Louis MO) in sterilized distilled water to a volume of 100%. All mice were scarified at day 14. Euthanasia was performed using carbon dioxide followed by cervical dislocation.
In the combined prevention and treatment group, both modes of folic acid treatments were provided including PO and local gel application. […]
A 3Shape TRIOS® intraoral digital scanner was used to scan all of the dissected tissue and create a 3D STL (STereoLithography) file from each scan. […] The cropped scans were saved and imported into open source software platform 3DSlicer 4.8, where they were volumetrically analyzed using the “Volumes” module. The quantified volume values were statistically analyzed in GraphPad Prism® 7 (GraphPad Software Inc., CA, USA).

Nc1nc2ncc(CNc3ccc(C(=O)N[C@@H](CCC(=O)O)C(=O)O)cc3)nc2c(=O)[nH]1 [folic acid]
amount of TGF-β secreted by HOF cells [1]: reduce TGF-β expression
Myd88 expression in the epithelium, disease group relative to folic acid prevention group [2]: significantly higher compared to the prevention and control groups
gingival overgrowth, 3D volumetric analysis ([3]; prevention sample vs disease sample, overlaid scans): reduced gingival overgrowth
gingival swelling and inflammation, clinical images ([3]; prevention: folic acid p.o. (10 μg/ml drinking water) & local gel, apparent at day 8, vs disease group): less swelling and inflammation

— US20260000496A1, “MATERIALS AND METHODS FOR DRUG-INDUCED GINGIVAL OVERGROWTH” (Optimed Technology, Inc., priority 2019, published 2026)
